Measured values published in patent US20090253712A1, “AQUEOUS SOLVENT SYSTEM FOR SOLUBILIZATION OF AZOLE COMPOUNDS” (SEMMELWEIS EGYETEM, priority 2008, published 2009).
In brackets after ≈: the same amount, converted by molar mass. Where two headings read alike, the source gives them in different places. Each block holds one molecule with its values, some of them ahead of it.

Experiments:
[1] = data from U.S. Pat. No. 6,383,471, cited from earlier work
[2] = Solubility tests of active agent in solvent systems; assay type: physicochemical; conditions: for solubility: thermodynamic from solid; for Solubility in the compositions of Table 5 (in words): 3% surfactant, 25% co-solvent and pH adjuster (pH 3.1); for Solubilized miconazole / ketoconazole / itraconazole ± S.D.: Table 5: 1.5% sodium taurocholeate + 1.5% polysorbate 80 + 15% ethanol + 10% propylene glycol + ammonium acetate pH 3.1
Procedure: General example for the solubility tests
Each of the solutions applied in the solubilization tests were prepared as follows (the specific amount of the components comes from the Tables below):
1. 0.05M ammonium acetate (as pH-adjuster) solution was prepared in a volumetric flask and the pH of this solution was set to pH 3.1 with glacial acetic acid.
2. The specific amount of co-solvent was measured into a beaker and the specific amount of the previously prepared 0.05M ammonium acetate solution was added. The pH of this solution was measured and set to pH 3.1 with glacial acetic acid.
3. The specific amount of surfactant was added to the solution.
4. This solvent system was vigorously shaken until complete homogenization of the solution was achieved.
5. Aliquot amount of this solvent system was measured and the specific amount of the active agent was added to the solution.
The Tables below define the composition of each solution tested and the amount of the active agent which could be solubilized by the applied solvent system.
The amount of the co-solvent is given in % by volume and the amount of the surfactant is given in % by weight in each table.

[3] = Stability on dilution with infusions; assay type: physicochemical; conditions: for Concentration of polysorbate 80 necessary to keep miconazole in solution on dilution: co-solvent 20% ethanol + ammonium acetate, pH 3.1, dilution to 200 ml with 5% dextrose or 0.9% sodium chloride infusions
Procedure: A composition called as “concentrate for infusion” should be diluted before administration to patients by a previously determined amount of usual infusion. The usual infusion is chosen preferably from the group of 5% dextrose infusion and 0.9% sodium chloride infusion. It is well known for a skilled person in the art that such a dilute should be stable for at least 48 hours. To reproduce the dilution scheme applied in the case of Monistat® (previously marketed as a concentrate for infusion containing miconazole), one of the compositions of the present invention was diluted with 5% dextrose infusion and 0.9% sodium chloride infusion. Based on the previous results a composition comprising of 0.1% polysorbate 80, 20% ethanol and ammonium acetate pH 3.1 was chosen for further investigation. […]

[4] = 3% polysorbate 80 + 25% ethanol + ammonium acetate pH 3.1, pH 3.1, aqueous with cosolvent or surfactant or cyclodextrin, Table 5: 3% polysorbate 80 + 25% ethanol + ammonium acetate pH 3.1, read-out: Solubilized miconazole / ketoconazole / itraconazole ± S.D.
[5] = aqueous with cosolvent or surfactant or cyclodextrin, Table 5: 1.5% sodium taurocholeate + 1.5% polysorbate 80 + 15% ethanol + 10% PEG 400 + ammonium acetate pH 3.1, read-out: Solubilized miconazole / ketoconazole / itraconazole ± S.D.
[6] = pH 3.1, aqueous with cosolvent or surfactant or cyclodextrin, Table 5: 1.5% sodium taurocholeate + 1.5% polysorbate 80 + 25% ethanol + ammonium acetate pH 3.1, read-out: Solubilized miconazole / ketoconazole / itraconazole ± S.D.
[7] = pH 3.1, aqueous with cosolvent or surfactant or cyclodextrin, Table 5: 3% polysorbate 80 + 15% ethanol + 10% PEG 400 + ammonium acetate pH 3.1, read-out: Solubilized miconazole / ketoconazole / itraconazole ± S.D.
[8] = pH 3.1, aqueous with cosolvent or surfactant or cyclodextrin, Table 5: 3% polysorbate 80 + 15% ethanol + 10% propylene glycol + ammonium acetate pH 3.1, read-out: Solubilized miconazole / ketoconazole / itraconazole ± S.D.

- solubility [2, 4]: 0.057 ± 0.005 mg/mL
- Solubility in the compositions of Table 5 (in words) [2]: no substantial solubility
- Solubilized miconazole / ketoconazole / itraconazole ± S.D. [2]: 0.026 ± 0.001 mg/mL
- solubility [2, 5]: 0.04 ± 0.001 mg/mL
- solubility [2, 6]: 0.04 ± 0.008 mg/mL
- solubility [2, 7]: 0.054 ± 0.002 mg/mL
- solubility [2, 8]: 0.04 ± 0.001 mg/mL
Compound: CCC(C)n1ncn(-c2ccc(N3CCN(c4ccc(OCC5COC(Cn6cncn6)(c6ccc(Cl)cc6Cl)O5)cc4)CC3)cc2)c1=O (centres unmarked) [itraconazole]
- Solubilized itraconazole ([1]; solvent system of Example 27): 85 mg/mL
- Solubilized itraconazole ([1]; solvent system of Example 28): 50 mg/mL
- Solubilized itraconazole ([1]; solvent system of Example 29): 50 mg/mL
- Solubilized itraconazole ([1]; solvent system of Example 30): 30 mg/mL
- Solubilized itraconazole ([1]; solvent system of Example 31): 30 mg/mL

- Concentration of polysorbate 80 necessary to keep miconazole in solution on dilution ([3]; 10 mg/ml miconazole in composition): 0.1%^
- Concentration of polysorbate 80 necessary to keep miconazole in solution on dilution ([3]; 20 mg/ml miconazole in composition): 3%
- Concentration of polysorbate 80 necessary to keep miconazole in solution on dilution ([3]; 30 mg/ml miconazole in composition): 3%
- Stability of diluted composition ([3]; 10 ml of 0.1% polysorbate 80, 20% ethanol, ammonium acetate pH 3.1 containing 20 mg/ml miconazole, diluted to 200 ml with 5% dextrose or 0.9% sodium chloride infusion): not stable for 48 hours
- solubility ([2]; 0.05 M ammonium acetate in water, pH 3.1, aqueous buffer, 0.05 M ammonium acetate pH 3.1 in water, read-out: Solubilized miconazole ± S.D.): 2.24 ± 0.36 mg/mL (≈ 5380 µM)
- solubility ([2]; 0.05 M calcium gluconate in water, pH 3.1, aqueous buffer, 0.05 M calcium gluconate pH 3.1 in water, read-out: Solubilized miconazole ± S.D.): 0.65 ± 0.06 mg/mL (≈ 1560 µM)
- solubility ([2]; 0.05 M potassium dihydrogen phosphate in water, pH 3.1, aqueous buffer, 0.05 M potassium dihydrogen phosphate pH 3.1 in water, read-out: Solubilized miconazole ± S.D.): 0.77 ± 0.05 mg/mL (≈ 1850 µM)
- solubility ([2]; 0.10% polysorbate 80 + 5% ethanol + ammonium acetate pH 3.1, pH 3.1, aqueous with cosolvent or surfactant or cyclodextrin, Table 3: 0.10% polysorbate 80 + 5% ethanol + ammonium acetate pH 3.1, read-out: Solubilized miconazole ± S.D.): 2.39 ± 0.12 mg/mL
- solubility ([2]; 0.1% polysorbate 80 + 10% ethanol + ammonium acetate pH 3.1, pH 3.1, aqueous with cosolvent or surfactant or cyclodextrin, Table 3: 0.1% polysorbate 80 + 10% ethanol + ammonium acetate pH 3.1, read-out: Solubilized miconazole ± S.D.): 4.52 ± 0.03 mg/mL
- solubility ([2]; 0.1% polysorbate 80 + 15% ethanol + ammonium acetate pH 3.1, pH 3.1, aqueous with cosolvent or surfactant or cyclodextrin, Table 3: 0.1% polysorbate 80 + 15% ethanol + ammonium acetate pH 3.1, read-out: Solubilized miconazole ± S.D.): 10.8 ± 2.84 mg/mL
- solubility ([2]; 0.1% polysorbate 80 + 20% ethanol + ammonium acetate pH 3.1, pH 3.1, aqueous with cosolvent or surfactant or cyclodextrin, Table 3: 0.1% polysorbate 80 + 20% ethanol + ammonium acetate pH 3.1, read-out: Solubilized miconazole ± S.D.): 35.1 ± 5.76 mg/mL
- solubility ([2]; 0.10% polysorbate 80 + 25% ethanol + ammonium acetate pH 3.1, pH 3.1, aqueous with cosolvent or surfactant or cyclodextrin, Table 2: 0.10% polysorbate 80 + 25% ethanol + ammonium acetate pH 3.1, read-out: Solubilized miconazole ± S.D.): 36 ± 2.09 mg/mL
- solubility ([2]; 0.1% polysorbate 80 + 25% ethanol + ammonium acetate pH 3.1, pH 3.1, aqueous with cosolvent or surfactant or cyclodextrin, Table 3: 0.1% polysorbate 80 + 25% ethanol + ammonium acetate pH 3.1, read-out: Solubilized miconazole ± S.D.): 36 ± 1.49 mg/mL
- solubility ([2]; 0.25% polysorbate 80 + 25% ethanol + ammonium acetate pH 3.1, pH 3.1, aqueous with cosolvent or surfactant or cyclodextrin, Table 2: 0.25% polysorbate 80 + 25% ethanol + ammonium acetate pH 3.1, read-out: Solubilized miconazole ± S.D.): 34.4 ± 1.51 mg/mL
- solubility ([2]; 0.50% polysorbate 80 + 25% ethanol + ammonium acetate pH 3.1, pH 3.1, aqueous with cosolvent or surfactant or cyclodextrin, Table 2: 0.50% polysorbate 80 + 25% ethanol + ammonium acetate pH 3.1, read-out: Solubilized miconazole ± S.D.): 44.72 ± 0.14 mg/mL
- solubility ([2]; 1.0% polysorbate 80 + 25% ethanol + ammonium acetate pH 3.1, pH 3.1, aqueous with cosolvent or surfactant or cyclodextrin, Table 2: 1.0% polysorbate 80 + 25% ethanol + ammonium acetate pH 3.1, read-out: Solubilized miconazole ± S.D.): 42.6 ± 2.04 mg/mL
- solubility ([2]; 2.0% polysorbate 80 + 25% ethanol + ammonium acetate pH 3.1, pH 3.1, aqueous with cosolvent or surfactant or cyclodextrin, Table 2: 2.0% polysorbate 80 + 25% ethanol + ammonium acetate pH 3.1, read-out: Solubilized miconazole ± S.D.): 37.9 ± 1.86 mg/mL
- solubility ([2]; 3% polysorbate 20 in water, aqueous with cosolvent or surfactant or cyclodextrin, 3% polysorbate 20 in water, read-out: Solubilized miconazole ± S.D.): 0.81 ± 0.07 mg/mL (≈ 1950 µM)
- solubility ([2]; 3% polysorbate 60 in water, aqueous with cosolvent or surfactant or cyclodextrin, 3% polysorbate 60 in water, read-out: Solubilized miconazole ± S.D.): 1.42 ± 0.1 mg/mL (≈ 3410 µM)
- solubility ([2]; 3.0% polysorbate 80 + 25% ethanol + ammonium acetate pH 3.1, pH 3.1, aqueous with cosolvent or surfactant or cyclodextrin, Table 2: 3.0% polysorbate 80 + 25% ethanol + ammonium acetate pH 3.1, read-out: Solubilized miconazole ± S.D.): 38.9 ± 0.61 mg/mL
- solubility [2, 4]: 34.1 ± 2.95 mg/mL
- solubility ([2]; 3% polysorbate 80 in water, aqueous with cosolvent or surfactant or cyclodextrin, 3% polysorbate 80 in water, read-out: Solubilized miconazole ± S.D.): 1.52 ± 0.09 mg/mL (≈ 3650 µM)
- Solubility in the compositions of Table 5 (in words) [2]: remarkable solubility
- solubility ([2]; 4.0% polysorbate 80 + 25% ethanol + ammonium acetate pH 3.1, pH 3.1, aqueous with cosolvent or surfactant or cyclodextrin, Table 2: 4.0% polysorbate 80 + 25% ethanol + ammonium acetate pH 3.1, read-out: Solubilized miconazole ± S.D.): 43.3 ± 2.61 mg/mL
- solubility ([2]; 5.0% polysorbate 80 + 25% ethanol + ammonium acetate pH 3.1, pH 3.1, aqueous with cosolvent or surfactant or cyclodextrin, Table 2: 5.0% polysorbate 80 + 25% ethanol + ammonium acetate pH 3.1, read-out: Solubilized miconazole ± S.D.): 42.7 ± 0.81 mg/mL
- solubility ([2]; 25% ethanol in water, aqueous with cosolvent or surfactant or cyclodextrin, 25% ethanol in water, read-out: Solubilized miconazole ± S.D.): 0.021 ± 0.01 mg/mL (≈ 50.5 µM)
- solubility ([2]; 30% glycerol in water, aqueous with cosolvent or surfactant or cyclodextrin, 30% glycerol in water, read-out: Solubilized miconazole ± S.D.): 0.024 ± 0.006 mg/mL (≈ 57.7 µM)
- solubility ([2]; 30% macrogol 400 in water, aqueous with cosolvent or surfactant or cyclodextrin, 30% macrogol 400 in water, read-out: Solubilized miconazole ± S.D.): 0.022 ± 0.008 mg/mL (≈ 52.9 µM)
- solubility ([2]; 60% propylene glycol in water, aqueous with cosolvent or surfactant or cyclodextrin, 60% propylene glycol in water, read-out: Solubilized miconazole ± S.D.): 0.36 ± 0.12 mg/mL (≈ 865 µM)
- Solubilized miconazole / ketoconazole / itraconazole ± S.D. [2]: 38.38 ± 1.53 mg/mL
- solubility [2, 5]: 34.8 ± 2.36 mg/mL
- solubility [2, 6]: 32.1 ± 2.86 mg/mL
- solubility [2, 7]: 22 ± 1.62 mg/mL
- solubility [2, 8]: 10.7 ± 0.69 mg/mL
Compound: Clc1ccc(COC(Cn2ccnc2)c2ccc(Cl)cc2Cl)c(Cl)c1 (centres unmarked) [miconazole]

- solubility [2, 4]: 139 ± 4.05 mg/mL
- Solubility in the compositions of Table 5 (in words) [2]: best solubility
- Solubilized miconazole / ketoconazole / itraconazole ± S.D. [2]: 126.54 ± 1.04 mg/mL
- solubility [2, 5]: 142 ± 2.85 mg/mL
- solubility [2, 6]: 137 ± 8.15 mg/mL
- solubility [2, 7]: 140 ± 3.99 mg/mL
- solubility [2, 8]: 124.7 ± 1.16 mg/mL
Compound: CC(=O)N1CCN(c2ccc(OCC3COC(Cn4ccnc4)(c4ccc(Cl)cc4Cl)O3)cc2)CC1 (centres unmarked) [ketoconazole]
